Test results as given in PubChem BioAssay (NCI).
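Five concentrations, 48 hours, 96-well plates. TGI denotes the concentration required for complete inhibition of growth.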

Columns and labels:
Assay in all cases: NCI-60 cell line screen, 48 h
M14 melanoma = tested on: M14 melanoma
HOP-92 NSCLC = tested on: HOP-92 NSCLC
OVCAR-5 ovarian = tested on: OVCAR-5 ovarian
KM12 colon = tested on: KM12 colon
MALME-3M melanoma = tested on: MALME-3M melanoma
IGROV1 ovarian = tested on: IGROV1 ovarian
U251 CNS = tested on: U251 CNS
NCI-H226 lung = tested on: NCI-H226 lung
SK-MEL-2 melanoma = tested on: SK-MEL-2 melanoma
K-562 leukemia = tested on: K-562 leukemia
HS 578T breast = tested on: HS 578T breast
786-0 renal = tested on: 786-0 renal

**Q.** With `CO/N=C(\C)c1cccc(Nc2c3ccccc3nc3occc23)c1` as the compound, how does the TGI (M14 melanoma) read?
**A.** 25.7 µM

**Q.** What about the TGI (HOP-92 NSCLC) of the same compound?
**A.** 43.2 µM

**Q.** And the TGI (OVCAR-5 ovarian)?
**A.** 46.8 µM

**Q.** What about the TGI (KM12 colon) of the same compound?
**A.** 39.5 µM

**Q.** What about the TGI (MALME-3M melanoma) of the same compound?
**A.** 34.5 µM

**Q.** And the TGI (IGROV1 ovarian)?
**A.** 19.4 µM

**Q.** And the TGI (U251 CNS)?
**A.** 38.6 µM

**Q.** And the TGI (NCI-H226 lung)?
**A.** 33.7 µM

**Q.** What about the TGI (SK-MEL-2 melanoma) of the same compound?
**A.** 15.5 µM

**Q.** And the TGI (K-562 leukemia)?
**A.** > 100 µM

**Q.** What about the TGI (HS 578T breast) of the same compound?
**A.** 41 µM

**Q.** What about the TGI (786-0 renal) of the same compound?
**A.** 29.7 µM

**Q.** How did the TGI (M14 melanoma) turn out when `Cc1ccccc1S(=O)(=O)Nn1cnc2ccc(S(=O)(=O)Nc3ccc(Cl)cc3)cc2c1=O` was run?
**A.** > 100 µM

**Q.** What about the TGI (HOP-92 NSCLC) of the same compound?
**A.** > 100 µM

**Q.** And the TGI (OVCAR-5 ovarian)?
**A.** > 100 µM

**Q.** What about the TGI (KM12 colon) of the same compound?
**A.** > 100 µM

**Q.** What about the TGI (MALME-3M melanoma) of the same compound?
**A.** > 100 µM

**Q.** And the TGI (IGROV1 ovarian)?
**A.** > 100 µM

**Q.** What about the TGI (U251 CNS) of the same compound?
**A.** > 100 µM

**Q.** And the TGI (NCI-H226 lung)?
**A.** > 100 µM

**Q.** What about the TGI (SK-MEL-2 melanoma) of the same compound?
**A.** > 100 µM

**Q.** What about the TGI (K-562 leukemia) of the same compound?
**A.** > 100 µM

**Q.** And the TGI (HS 578T breast)?
**A.** > 100 µM

**Q.** And the TGI (786-0 renal)?
**A.** > 100 µM

**Q.** What does the source list for `Cc1ccnc(NC(NC(=O)c2ccccc2)(C(F)(F)F)C(F)(F)F)c1`?
**A.** TGI (M14 melanoma): > 100 µM; TGI (HOP-92 NSCLC): > 100 µM; TGI (OVCAR-5 ovarian): > 100 µM; TGI (KM12 colon): > 100 µM; TGI (MALME-3M melanoma): > 100 µM; TGI (IGROV1 ovarian): > 100 µM; TGI (U251 CNS): > 100 µM; TGI (NCI-H226 lung): > 100 µM; TGI (SK-MEL-2 melanoma): > 100 µM; TGI (K-562 leukemia): > 100 µM; TGI (HS 578T breast): > 100 µM; TGI (786-0 renal): > 100 µM

**Q.** For `N#Cc1cnc(N)nc1NCC1(CO)CC(CCc2ccccc2)C1` (configuration not stated), which TGI (M14 melanoma) is on record?
**A.** > 100 µM

**Q.** And the TGI (HOP-92 NSCLC)?
**A.** > 100 µM

**Q.** What about the TGI (OVCAR-5 ovarian) of the same compound?
**A.** > 100 µM

**Q.** And the TGI (KM12 colon)?
**A.** > 100 µM

**Q.** What about the TGI (MALME-3M melanoma) of the same compound?
**A.** > 100 µM

**Q.** What about the TGI (IGROV1 ovarian) of the same compound?
**A.** > 100 µM

**Q.** And the TGI (U251 CNS)?
**A.** > 100 µM

**Q.** What about the TGI (NCI-H226 lung) of the same compound?
**A.** > 100 µM

**Q.** What about the TGI (SK-MEL-2 melanoma) of the same compound?
**A.** > 100 µM

**Q.** What about the TGI (K-562 leukemia) of the same compound?
**A.** > 100 µM

**Q.** What about the TGI (HS 578T breast) of the same compound?
**A.** > 100 µM

**Q.** And the TGI (786-0 renal)?
**A.** > 100 µM

**Q.** `COC(=O)C(CCSC)NC(=O)Cc1ccc(C(=O)c2ccccc2)cc1` (configuration not stated) was tested. Which TGI (M14 melanoma) did it give?
**A.** > 100 µM

**Q.** What about the TGI (HOP-92 NSCLC) of the same compound?
**A.** > 100 µM

**Q.** And the TGI (OVCAR-5 ovarian)?
**A.** > 100 µM

**Q.** What about the TGI (KM12 colon) of the same compound?
**A.** > 100 µM

**Q.** And the TGI (MALME-3M melanoma)?
**A.** > 100 µM

**Q.** And the TGI (IGROV1 ovarian)?
**A.** > 100 µM

**Q.** And the TGI (U251 CNS)?
**A.** > 100 µM

**Q.** What about the TGI (NCI-H226 lung) of the same compound?
**A.** > 100 µM

**Q.** What about the TGI (SK-MEL-2 melanoma) of the same compound?
**A.** > 100 µM

**Q.** And the TGI (K-562 leukemia)?
**A.** > 100 µM

**Q.** What about the TGI (HS 578T breast) of the same compound?
**A.** > 100 µM

**Q.** And the TGI (786-0 renal)?
**A.** > 100 µM

**Q.** Which results are given for `CCCCCCCCCCNC(=O)CCC(NC(=O)c1ccc(N(C)Cc2cnc3nc(N)nc(N)c3n2)cc1)C(=O)NCCCCCCCCCC` (configuration not stated)?
**A.** TGI (M14 melanoma): 57.7 µM; TGI (HOP-92 NSCLC): 27.1 µM; TGI (OVCAR-5 ovarian): 66.1 µM; TGI (KM12 colon): 16.2 µM; TGI (MALME-3M melanoma): 37.7 µM; TGI (IGROV1 ovarian): 20.1 µM; TGI (U251 CNS): 14.1 µM; TGI (NCI-H226 lung): 59.3 µM; TGI (SK-MEL-2 melanoma): 30.4 µM; TGI (K-562 leukemia): > 32.2 µM; TGI (HS 578T breast): 20.8 µM; TGI (786-0 renal): 13.5 µM

**Q.** What does the source list for `Nc1onc2c1Cc1c(noc1N)-c1ccccc1-2`?
**A.** TGI (M14 melanoma): > 100 µM; TGI (HOP-92 NSCLC): 94.6 µM; TGI (OVCAR-5 ovarian): > 100 µM; TGI (KM12 colon): > 100 µM; TGI (MALME-3M melanoma): > 100 µM; TGI (IGROV1 ovarian): > 100 µM; TGI (U251 CNS): > 100 µM; TGI (NCI-H226 lung): > 100 µM; TGI (SK-MEL-2 melanoma): > 100 µM; TGI (K-562 leukemia): > 100 µM; TGI (HS 578T breast): 83.8 µM; TGI (786-0 renal): > 100 µM

**Q.** Which results are given for `NC(N)=Nc1ccc(CC(N)C(=O)O)cc1` (configuration not stated)?
**A.** TGI (M14 melanoma): > 12.5 µM; TGI (HOP-92 NSCLC): > 12.5 µM; TGI (OVCAR-5 ovarian): > 12.5 µM; TGI (KM12 colon): > 12.5 µM; TGI (MALME-3M melanoma): > 12.5 µM; TGI (IGROV1 ovarian): > 12.5 µM; TGI (U251 CNS): > 12.5 µM; TGI (NCI-H226 lung): > 12.5 µM; TGI (SK-MEL-2 melanoma): > 12.5 µM; TGI (K-562 leukemia): > 12.5 µM; TGI (HS 578T breast): > 12.5 µM; TGI (786-0 renal): > 12.5 µM

**Q.** `CC(=O)Nc1c(C)cc2c(nc3n2CCC3O)c1[N+](=O)[O-]` (configuration not stated) was tested. Which TGI (M14 melanoma) did it give?
**A.** > 100 µM

**Q.** What about the TGI (HOP-92 NSCLC) of the same compound?
**A.** > 100 µM

**Q.** What about the TGI (OVCAR-5 ovarian) of the same compound?
**A.** > 100 µM

**Q.** What about the TGI (KM12 colon) of the same compound?
**A.** > 100 µM

**Q.** What about the TGI (MALME-3M melanoma) of the same compound?
**A.** > 100 µM

**Q.** And the TGI (IGROV1 ovarian)?
**A.** > 100 µM

**Q.** And the TGI (U251 CNS)?
**A.** > 100 µM

**Q.** And the TGI (NCI-H226 lung)?
**A.** > 100 µM

**Q.** What about the TGI (SK-MEL-2 melanoma) of the same compound?
**A.** > 100 µM

**Q.** What about the TGI (K-562 leukemia) of the same compound?
**A.** > 100 µM

**Q.** What about the TGI (HS 578T breast) of the same compound?
**A.** > 100 µM

**Q.** What about the TGI (786-0 renal) of the same compound?
**A.** > 100 µM

**Q.** For `CCOC(=O)C(SCCO)C(C(=O)OCC)n1ccc(=O)[nH]c1=O` (configuration not stated), which TGI (M14 melanoma) is on record?
**A.** > 90.5 µM

**Q.** What about the TGI (HOP-92 NSCLC) of the same compound?
**A.** 69.1 µM

**Q.** What about the TGI (OVCAR-5 ovarian) of the same compound?
**A.** 47.6 µM

**Q.** And the TGI (KM12 colon)?
**A.** > 87.4 µM

**Q.** What about the TGI (MALME-3M melanoma) of the same compound?
**A.** 32.9 µM

**Q.** And the TGI (IGROV1 ovarian)?
**A.** > 95 µM

**Q.** And the TGI (U251 CNS)?
**A.** 82.9 µM

**Q.** And the TGI (NCI-H226 lung)?
**A.** > 61.2 µM

**Q.** What about the TGI (SK-MEL-2 melanoma) of the same compound?
**A.** > 79.8 µM

**Q.** And the TGI (K-562 leukemia)?
**A.** 36.1 µM

**Q.** What about the TGI (HS 578T breast) of the same compound?
**A.** > 100 µM

**Q.** What about the TGI (786-0 renal) of the same compound?
**A.** > 50.6 µM

**Q.** What does the source list for `O=c1/c(=C/c2ccc(-c3ccc(Cl)cc3Cl)o2)sc2n1[C@@H](c1ccc(Cl)cc1)C=C(c1cc(F)c(Cl)cc1Cl)N=2`?
**A.** TGI (M14 melanoma): > 100 µM; TGI (HOP-92 NSCLC): 61.7 µM; TGI (OVCAR-5 ovarian): > 100 µM; TGI (KM12 colon): > 100 µM; TGI (MALME-3M melanoma): > 100 µM; TGI (IGROV1 ovarian): > 100 µM; TGI (U251 CNS): > 100 µM; TGI (NCI-H226 lung): > 100 µM; TGI (SK-MEL-2 melanoma): > 100 µM; TGI (K-562 leukemia): > 100 µM; TGI (HS 578T breast): > 100 µM; TGI (786-0 renal): > 100 µM
